Patent publication US20150105252A1, “SUBSTITUTED PYRAZOLES AS HERBICIDES” (E I DU PONT DE NEMOURS AND COMPANY, priority 2013, published 2015)

Experiments:
[1] = tested on: foxtail, giant; test: Test A postemergence; assay type: in vivo, Setaria faberii
Procedure, shortened: (§1)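 Visual injury ratings, 0 = no effect to 100 = complete control, taken about 10 days after treatment against untreated controls. Test chemicals, in a non-phytotoxic surfactant-containing solvent, were sprayed onto soil preemergence or onto one- to two-leaf plants (2–10 cm) postemergence, in loam–sand soil under greenhouse conditions.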

[2] = tested on: crabgrass, large; test: Test A postemergence; assay type: in vivo, Digitaria sanguinalis
Procedure, shortened: as §1

[3] = tested on: barnyardgrass; test: Test A postemergence; assay type: in vivo, Echinochloa crus-galli
Procedure, shortened: as §1

[4] = tested on: morningglory; test: Test A preemergence; assay type: in vivo, Ipomoea spp.; settings: preemergence; for Morningglory plant response rating (0 to 100 scale): visual injury approx. 10 days after treatment
Procedure, shortened: as §1

[5] = tested on: corn; test: Test A preemergence; assay type: in vivo, Zea mays; settings: preemergence; for Corn plant response rating (0 to 100 scale): visual injury approx. 10 days after treatment
Procedure, shortened: as §1

[6] = tested on: corn; test: Test A postemergence; assay type: in vivo, Zea mays
Procedure, shortened: as §1

[7] = tested on: velvetleaf; test: Test A preemergence; assay type: in vivo, Abutilon theophrasti; settings: preemergence; for Velvetleaf plant response rating (0 to 100 scale): visual injury approx. 10 days after treatment
Procedure, shortened: as §1

[8] = tested on: wheat; test: Test A postemergence; assay type: in vivo, Triticum aestivum
Procedure, shortened: as §1

[9] = tested on: crabgrass, large; test: Test A preemergence; assay type: in vivo, Digitaria sanguinalis; settings: preemergence; for Crabgrass, Large plant response rating (0 to 100 scale): visual injury approx. 10 days after treatment
Procedure, shortened: as §1

[10] = tested on: barnyardgrass; test: Test B flood; assay type: in vivo, Echinochloa crus-galli; settings: 250 g ai/ha, visual rating on 0 to 100 scale (0 no effect, 100 complete control), 13 to 15 days
Experimental: (§2) Seeds selected from rice (Oryza sativa), sedge, umbrella (small-flower umbrella sedge Cyperus difformis), ducksalad (Heteranthera limosa), and barnyardgrass (Echinochloa crus-galli) were grown to the 2-leaf stage for testing. At time of treatment, test pots were flooded to 3 cm above the soil surface, treated by application of test compounds directly to the paddy water, and then maintained at that water depth for the duration of the test.
(§3) Treated plants and controls were maintained in a greenhouse for 13 to 15 days, after which time all species were compared to controls and visually evaluated. Plant response ratings, summarized in Table B, are based on a scale of 0 to 100 where 0 is no effect and 100 is complete control. A dash (-) response means no test result.

[11] = tested on: wheat; test: Test A preemergence; assay type: in vivo, Triticum aestivum; settings: preemergence; for Wheat plant response rating (0 to 100 scale): visual injury approx. 10 days after treatment
Procedure, shortened: as §1

[12] = tested on: rice; test: Test B flood; assay type: in vivo, Oryza sativa; settings: 250 g ai/ha, visual rating on 0 to 100 scale (0 no effect, 100 complete control), 13 to 15 days
Procedure, shortened: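 Greenhouse assay lasting 13 to 15 days. Treatment was into water flooding pots 3 cm deep, at the 2-leaf stage, with that level sustained afterwards. Scores compare treated with control plants visually, 100 denoting complete control and 0 no effect; a dash marks no test result.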

[13] = tested on: velvetleaf; test: Test A postemergence; assay type: in vivo, Abutilon theophrasti
Procedure, shortened: as §1

[14] = tested on: sedge, umbrella; test: Test B flood; assay type: in vivo, Cyperus difformis; settings: 250 g ai/ha, visual rating on 0 to 100 scale (0 no effect, 100 complete control), 13 to 15 days
Experimental: as §2, §3

[15] = tested on: morningglory; test: Test A postemergence; assay type: in vivo, Ipomoea spp.
Procedure, shortened: as §1

[16] = tested on: barnyardgrass; test: Test A preemergence; assay type: in vivo, Echinochloa crus-galli; settings: preemergence; for Barnyardgrass plant response rating (0 to 100 scale, 0 is no effect, 100 is complete control): visual injury approx. 10 days after treatment
Procedure, shortened: as §1

[17] = tested on: foxtail, giant; test: Test A preemergence; assay type: in vivo, Setaria faberii; settings: preemergence; for Foxtail, Giant plant response rating (0 to 100 scale): visual injury approx. 10 days after treatment
Procedure, shortened: as §1

[18] = tested on: pigweed; test: Test A postemergence; assay type: in vivo, Amaranthus retroflexus
Procedure, shortened: as §1

[19] = tested on: pigweed; test: Test A preemergence; assay type: in vivo, Amaranthus retroflexus; settings: preemergence; for Pigweed plant response rating (0 to 100 scale): visual injury approx. 10 days after treatment
Procedure, shortened: as §1

[20] = tested on: ducksalad; test: Test B flood; assay type: in vivo, Heteranthera limosa; settings: 250 g ai/ha, visual rating on 0 to 100 scale (0 no effect, 100 complete control), 13 to 15 days
Experimental: as §2, §3

[21] = Postemergence, 125 g ai/ha, 0 to 100 scale, 0 no effect, 100 complete control
[22] = Postemergence, 500 g ai/ha, 0 to 100 scale (0 no effect, 100 complete control)
[23] = 500 g ai/ha, visual injury after approx. 10 days, 0 to 100 scale (0 no effect, 100 complete control)
[24] = Postemergence, 500 g ai/ha, visual rating after approx. 10 days, 0 to 100 scale (0 no effect, 100 complete control)
[25] = postemergence, 125 g ai/ha, about 10 days, visual rating on 0 to 100 scale (0 no effect, 100 complete control)
[26] = 125 g ai/ha, visual injury, 0 to 100 scale, approx. 10 days

COCc1cc(C(=O)NCC(F)(F)F)nn1Cc1cc(C(F)(F)C(F)(F)F)nn1C [Compound 225]
Foxtail, Giant plant response rating [1, 21]: 10
Foxtail, Giant plant response rating [1, 22]: 60
Crabgrass, Large plant response rating [2, 21]: 40
Crabgrass, Large plant response rating [2, 22]: 70
Barnyardgrass plant response rating [3, 21]: 10
Barnyardgrass plant response rating [3, 22]: 30
Morningglory plant response rating (0 to 100 scale) ([4]; 125 g ai/ha): 30
Corn plant response rating (0 to 100 scale) ([5]; 125 g ai/ha): 0
Corn plant response rating [5, 23]: 20
Corn plant response rating [6, 21]: 10
Corn plant response rating [6, 22]: 30
Velvetleaf plant response rating (0 to 100 scale) ([7]; 125 g ai/ha): 0
Wheat plant response rating [8, 21]: 0
Wheat plant response rating [8, 22]: 0
Crabgrass, Large plant response rating (0 to 100 scale) ([9]; 125 g ai/ha): 20
Crabgrass, Large plant response rating [9, 23]: 90
Plant response rating, Barnyardgrass [10]: 0
Wheat plant response rating (0 to 100 scale) ([11]; 125 g ai/ha): 0
Plant response rating, Rice [12]: 0
Velvetleaf plant response rating [13, 21]: 20
Velvetleaf plant response rating [13, 22]: 30
Plant response rating, Sedge, Umbrella [14]: 50
Morningglory plant response rating [15, 21]: 10
Morningglory plant response rating [15, 22]: 60
Barnyardgrass plant response rating (0 to 100 scale, 0 is no effect, 100 is complete control) ([16]; 125 g ai/ha): 10
Barnyardgrass plant response rating [16, 23]: 80
Foxtail, Giant plant response rating (0 to 100 scale) ([17]; 125 g ai/ha): 20
Foxtail, Giant plant response rating [17, 23]: 70
Pigweed plant response rating [18, 21]: 0
Pigweed plant response rating [18, 22]: 0
Pigweed plant response rating (0 to 100 scale) ([19]; 125 g ai/ha): 20
Plant response rating, Ducksalad [20]: 55

CCc1cc(C(=O)NCC(F)(F)C(F)(F)F)nn1Cc1ccnc(C(F)(F)F)c1 [Compound 102]
Foxtail, Giant plant response rating [1, 24]: 90
Foxtail, Giant plant response rating [1, 25]: 50
Crabgrass, Large plant response rating [2, 24]: 80
Crabgrass, Large plant response rating [2, 25]: 50
Barnyardgrass plant response rating [3, 24]: 60
Barnyardgrass plant response rating [3, 25]: 20
Morningglory plant response rating [4, 26]: 10
Morningglory plant response rating [4, 23]: 50
Corn plant response rating [5, 26]: 10
Corn plant response rating [5, 23]: 60
Corn plant response rating [6, 24]: 50
Corn plant response rating [6, 25]: 30
Velvetleaf plant response rating [7, 26]: 0
Velvetleaf plant response rating [7, 23]: 100
Wheat plant response rating [8, 24]: 30
Wheat plant response rating [8, 25]: 0
Crabgrass, Large plant response rating [9, 26]: 60
Crabgrass, Large plant response rating [9, 23]: 100
Plant response rating, Barnyardgrass [10]: 0
Wheat plant response rating [11, 26]: 0
Wheat plant response rating [11, 23]: 40
Plant response rating, Rice [12]: 0
Velvetleaf plant response rating [13, 24]: 50
Velvetleaf plant response rating [13, 25]: 10
Plant response rating, Sedge, Umbrella [14]: 50
Morningglory plant response rating [15, 24]: 60
Morningglory plant response rating [15, 25]: 40
Barnyardgrass plant response rating [16, 26]: 20
Barnyardgrass plant response rating [16, 23]: 90
Foxtail, Giant plant response rating [17, 26]: 90
Foxtail, Giant plant response rating [17, 23]: 100
Pigweed plant response rating [18, 24]: 80
Pigweed plant response rating [18, 25]: 50
Pigweed plant response rating [19, 26]: 90
Pigweed plant response rating [19, 23]: 90
Plant response rating, Ducksalad [20]: 50

CCc1cc(C(=O)NCC(F)(F)F)nn1Oc1cccc(C(F)(F)F)c1 [Compound 218]
Foxtail, Giant plant response rating [1, 21]: 20
Foxtail, Giant plant response rating [1, 22]: 30
Crabgrass, Large plant response rating [2, 21]: 20
Crabgrass, Large plant response rating [2, 22]: 40
Barnyardgrass plant response rating [3, 21]: 0
Barnyardgrass plant response rating [3, 22]: 20
Morningglory plant response rating (0 to 100 scale) ([4]; 125 g ai/ha): 0
Corn plant response rating (0 to 100 scale) ([5]; 125 g ai/ha): 0
Corn plant response rating [5, 23]: 0
Corn plant response rating [6, 21]: 10
Corn plant response rating [6, 22]: 20
Velvetleaf plant response rating (0 to 100 scale) ([7]; 125 g ai/ha): 0
Wheat plant response rating [8, 21]: 0
Wheat plant response rating [8, 22]: 10
Crabgrass, Large plant response rating (0 to 100 scale) ([9]; 125 g ai/ha): 10
Crabgrass, Large plant response rating [9, 23]: 80
Plant response rating, Barnyardgrass [10]: 0
Wheat plant response rating (0 to 100 scale) ([11]; 125 g ai/ha): 0
Plant response rating, Rice [12]: 0
Velvetleaf plant response rating [13, 21]: 0
Velvetleaf plant response rating [13, 22]: 40
Plant response rating, Sedge, Umbrella [14]: 0
Morningglory plant response rating [15, 21]: 50
Morningglory plant response rating [15, 22]: 100
Barnyardgrass plant response rating (0 to 100 scale, 0 is no effect, 100 is complete control) ([16]; 125 g ai/ha): 0
Barnyardgrass plant response rating [16, 23]: 40
Foxtail, Giant plant response rating (0 to 100 scale) ([17]; 125 g ai/ha): 0
Foxtail, Giant plant response rating [17, 23]: 40
Pigweed plant response rating [18, 21]: 50
Pigweed plant response rating [18, 22]: 80
Pigweed plant response rating (0 to 100 scale) ([19]; 125 g ai/ha): 0
Plant response rating, Ducksalad [20]: 0
